Data taken from US9695155B2, “Herbicidal substituted pyrimidinyloxy benzene compounds” (E. I. DU PONT DE NEMOURS AND COMPANY, priority 2013, dated 2017).

Experiments:
barnyardgrass [1] = assay: Test A postemergence; type: in vivo, Echinochloa crus-galli; details: Echinochloa crus-galli, post-emergence, 240 h
How it was run: (§1)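 Pre- and postemergence greenhouse screen. Soil: loam + sand. Spray carrier: solvent mixture, non-phytotoxic, with surfactant. Post timing at 1–2 leaves, height 2–10 cm. Readout: visual injury on a 0–100 scale roughly 10 days after application, untreated plants as reference.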

large (Lg) crabgrass = assay: Test A postemergence; type: in vivo, Digitaria sanguinalis; details: Digitaria sanguinalis, post-emergence, 240 h
How it was run: as §1

giant foxtail [2] = assay: Test A postemergence; type: in vivo, Setaria faberii; details: Setaria faberi, post-emergence, 240 h
How it was run: as §1

morningglory [3] = assay: Test A postemergence; type: in vivo, Ipomoea spp.; details: Ipomoea, post-emergence, 240 h
How it was run: as §1

velvetleaf [4] = assay: Test A postemergence; type: in vivo, Abutilon theophrasti; details: Abutilon theophrasti, post-emergence, 240 h
How it was run: as §1

corn = assay: Test A postemergence; type: in vivo, Zea mays; details: Zea mays, post-emergence, 240 h
How it was run: as §1

Heteranthera limosa = assay: Test B flooded paddy test; type: in vivo; details: Heteranthera limosa, Flood, 250 g ai/ha; 0 to 100 scale where 0 is no effect and 100 is complete control; read-out: Plant response rating, Ducksalad
How it was run: (§2)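 Post-emergence paddy-water application at the 2-leaf stage, with 3 cm flood kept for the whole test. Response was judged visually relative to controls after 13 to 15 greenhouse days, 0 indicating no effect and 100 complete control.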

barnyardgrass [5] = assay: Test B flooded paddy test; type: in vivo, Echinochloa crus-galli; details: Echinochloa crus-galli; Flood, 250 g ai/ha; 0 to 100 scale where 0 is no effect and 100 is complete control; read-out: Plant response rating, Barnyardgrass
How it was run: as §2

wheat, winter = assay: Test C preemergence; type: in vivo, Triticum aestivum; details: Triticum aestivum, pre-emergence
How it was run: (§3)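 Rated visually on 0–100 (100 = complete control) after 13–15 days under glass. Treatments went onto freshly seeded loam/sand soil or onto emerged plants at the 1- to 4-leaf stage, using a surfactant-containing solvent formulation.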

giant foxtail [6] = assay: Test C preemergence; type: in vivo, Setaria faberii; details: Setaria faberi, pre-emergence
How it was run: as §3

yellow nutsedge = assay: Test C preemergence; type: in vivo, Cyperus esculentus; details: Cyperus, pre-emergence
How it was run: as §3

pigweed = assay: Test C preemergence; type: in vivo, Amaranthus retroflexus; details: Amaranthus retroflexus, pre-emergence
How it was run: as §3

velvetleaf [7] = assay: Test C preemergence; type: in vivo, Abutilon theophrasti; details: Abutilon theophrasti, pre-emergence
How it was run: as §3

galium = assay: Test C postemergence; type: in vivo, Galium aparine; details: Galium, post-emergence
How it was run: as §3

morningglory [8] = assay: Test C postemergence; type: in vivo, Ipomoea coccinea; details: Ipomoea, post-emergence
How it was run: as §3

chickweed = assay: Test C postemergence; type: in vivo, Stellaria media; details: Stellaria media, post-emergence
How it was run: as §3

N#Cc1cccc(Oc2ncc(Cl)cn2)c1-n1cc(C(F)(F)F)cn1 [Compound 58, 3-[(5-chloro-2-pyrimidinyl)oxy]-2-[4-(trifluoromethyl)-1H-pyrazol-1-yl]benzonitrile]
pest or weed control at 125 g/ha (barnyardgrass [1]; 125 g ai/ha, 0 to 100 scale where 0 is no effect and 100 is complete control, read-out: Plant response rating, Barnyardgrass): 100% | pest or weed control at 500 g/ha (barnyardgrass [1]; 500 g ai/ha, 0 to 100 scale, 0 no effect, 100 complete control, read-out: Plant response rating Barnyardgrass): 100% | pest or weed control at 125 g/ha (large (Lg) crabgrass; 125 g ai/ha, 0 to 100 scale where 0 is no effect and 100 is complete control, read-out: Plant response rating, Crabgrass, Large): 100% | pest or weed control at 500 g/ha (large (Lg) crabgrass; 500 g ai/ha, 0 to 100 scale, 0 no effect, 100 complete control, read-out: Plant response rating Crabgrass, Large): 100% | pest or weed control at 125 g/ha (giant foxtail [2]; 125 g ai/ha, 0 to 100 scale where 0 is no effect and 100 is complete control, read-out: Plant response rating, Foxtail, Giant): 100% | pest or weed control at 500 g/ha (giant foxtail [2]; 500 g ai/ha, 0 to 100 scale, 0 no effect, 100 complete control, read-out: Plant response rating Foxtail, Giant): 100% | pest or weed control at 125 g/ha (morningglory [3]; 125 g ai/ha, 0 to 100 scale where 0 is no effect and 100 is complete control, read-out: Plant response rating, Morningglory): 100% | pest or weed control at 500 g/ha (morningglory [3]; 500 g ai/ha, 0 to 100 scale, 0 no effect, 100 complete control, read-out: Plant response rating Morningglory): 100% | pest or weed control at 125 g/ha (velvetleaf [4]; 125 g ai/ha, 0 to 100 scale where 0 is no effect and 100 is complete control, read-out: Plant response rating, Velvetleaf): 100% | pest or weed control at 500 g/ha (velvetleaf [4]; 500 g ai/ha, 0 to 100 scale, 0 no effect, 100 complete control, read-out: Plant response rating Velvetleaf): 100% | Corn plant response rating (crop injury, 0 = no effect, 100 = complete kill) at 125 g/ha (corn; 125 g ai/ha, 0 to 100 scale where 0 is no effect and 100 is complete control): 100% | plant injury at 500 g/ha (corn; 500 g ai/ha, 0 to 100 scale, 0 no effect, 100 complete control, read-out: Plant response rating Corn): 100% | pest or weed control at 250 g/ha (Heteranthera limosa): 90% | pest or weed control at 250 g/ha (barnyardgrass [5]): 80% | plant injury at 62 g/ha (wheat, winter; 62 g ai/ha, preemergence, scale 0 (no effect) to 100 (complete control), read-out: Wheat plant response rating): 80% | plant injury at 125 g/ha (wheat, winter; 125 g ai/ha, preemergence, scale 0 (no effect) to 100 (complete control), read-out: Wheat plant response rating): 80% | plant injury at 250 g/ha (wheat, winter; 250 g ai/ha, preemergence, scale 0 (no effect) to 100 (complete control), read-out: Wheat plant response rating): 90% | plant injury at 31 g/ha (wheat, winter; Preemergence, 31 g ai/ha, scale 0 to 100, 0 no effect, 100 complete control, read-out: Plant response rating, Wheat): 45% | pest or weed control at 62 g/ha (giant foxtail [6]; 62 g ai/ha, preemergence, scale 0 (no effect) to 100 (complete control), read-out: Foxtail, Giant plant response rating): 100% | pest or weed control at 125 g/ha (giant foxtail [6]; 125 g ai/ha, preemergence, scale 0 (no effect) to 100 (complete control), read-out: Foxtail, Giant plant response rating): 100% | pest or weed control at 250 g/ha (giant foxtail [6]; 250 g ai/ha, preemergence, scale 0 (no effect) to 100 (complete control), read-out: Foxtail, Giant plant response rating): 100% | pest or weed control at 31 g/ha (giant foxtail [6]; Preemergence, 31 g ai/ha, scale 0 to 100, 0 no effect, 100 complete control, read-out: Plant response rating, Foxtail, Giant): 100% | pest or weed control at 62 g/ha (yellow nutsedge; 62 g ai/ha, preemergence, scale 0 (no effect) to 100 (complete control), read-out: Nutsedge, Yellow plant response rating): 85% | pest or weed control at 125 g/ha (yellow nutsedge; 125 g ai/ha, preemergence, scale 0 (no effect) to 100 (complete control), read-out: Nutsedge, Yellow plant response rating): 90% | pest or weed control at 250 g/ha (yellow nutsedge; 250 g ai/ha, preemergence, scale 0 (no effect) to 100 (complete control), read-out: Nutsedge, Yellow plant response rating): 95% | pest or weed control at 31 g/ha (yellow nutsedge; Preemergence, 31 g ai/ha, scale 0 to 100, 0 no effect, 100 complete control, read-out: Plant response rating, Nutsedge, Yellow): 70% | pest or weed control at 62 g/ha (pigweed; 62 g ai/ha, preemergence, scale 0 (no effect) to 100 (complete control), read-out: Pigweed plant response rating): 100% | pest or weed control at 125 g/ha (pigweed; 125 g ai/ha, preemergence, scale 0 (no effect) to 100 (complete control), read-out: Pigweed plant response rating): 100% | pest or weed control at 250 g/ha (pigweed; 250 g ai/ha, preemergence, scale 0 (no effect) to 100 (complete control), read-out: Pigweed plant response rating): 100% | pest or weed control at 31 g/ha (pigweed; Preemergence, 31 g ai/ha, scale 0 to 100, 0 no effect, 100 complete control, read-out: Plant response rating, Pigweed): 100% | pest or weed control at 62 g/ha (velvetleaf [7]; 62 g ai/ha, preemergence, scale 0 (no effect) to 100 (complete control), read-out: Velvetleaf plant response rating): 100% | pest or weed control at 125 g/ha (velvetleaf [7]; 125 g ai/ha, preemergence, scale 0 (no effect) to 100 (complete control), read-out: Velvetleaf plant response rating): 100% | pest or weed control at 250 g/ha (velvetleaf [7]; 250 g ai/ha, preemergence, scale 0 (no effect) to 100 (complete control), read-out: Velvetleaf plant response rating): 100% | pest or weed control at 31 g/ha (velvetleaf [7]; Preemergence, 31 g ai/ha, scale 0 to 100, 0 no effect, 100 complete control, read-out: Plant response rating, Velvetleaf): 100% | pest or weed control at 125 g/ha (galium; 125 g ai/ha, postemergence, read-out: Plant response rating (0 to 100), Galium): 85% | pest or weed control at 250 g/ha (galium; 250 g ai/ha, postemergence, read-out: Plant response rating (0 to 100), Galium): 95% | pest or weed control at 31 g/ha (galium; Postemergence, 31 g ai/ha, scale 0 to 100 (0 no effect, 100 complete control), 13 to 15 days, read-out: Plant response rating, Galium): 60% | pest or weed control at 62 g/ha (galium; Postemergence, 62 g ai/ha, scale 0 to 100 (0 no effect, 100 complete control), read-out: Plant response rating, Galium): 70% | pest or weed control at 125 g/ha (morningglory [8]; 125 g ai/ha, postemergence, read-out: Plant response rating (0 to 100), Morningglory): 98% | pest or weed control at 250 g/ha (morningglory [8]; 250 g ai/ha, postemergence, read-out: Plant response rating (0 to 100), Morningglory): 98% | pest or weed control at 31 g/ha (morningglory [8]; Postemergence, 31 g ai/ha, scale 0 to 100 (0 no effect, 100 complete control), 13 to 15 days, read-out: Plant response rating, Morningglory): 80% | pest or weed control at 62 g/ha (morningglory [8]; Postemergence, 62 g ai/ha, scale 0 to 100 (0 no effect, 100 complete control), read-out: Plant response rating, Morningglory): 95% | pest or weed control at 125 g/ha (chickweed; 125 g ai/ha, postemergence, read-out: Plant response rating (0 to 100), Chickweed): 100% | pest or weed control at 250 g/ha (chickweed; 250 g ai/ha, postemergence, read-out: Plant response rating (0 to 100), Chickweed): 100% | pest or weed control at 31 g/ha (chickweed; Postemergence, 31 g ai/ha, scale 0 to 100 (0 no effect, 100 complete control), 13 to 15 days, read-out: Plant response rating, Chickweed): 95% | pest or weed control at 62 g/ha (chickweed; Postemergence, 62 g ai/ha, scale 0 to 100 (0 no effect, 100 complete control), read-out: Plant response rating, Chickweed): 95%
